# Test results: PMC8274846, “Biogenic nanoporous silicon carrier improves the efficacy of buparvaquone against resistant visceral leishmaniasis” (PLoS Neglected Tropical Diseases, 2021)
# Where “and” joins values, the source holds several entries; their conditions need not be identical. Equal values may be shown once. Read-outs that look alike come from different tables or passages of the source.
# How the values were obtained:
# [1] = Cytotoxicity studies (CC50) on peritoneal macrophages; format: cell-based, BALB/c mice; settings: BALB/c, mouse, resident peritoneal macrophages, 48 h exposure, mean ± σ, n = 3
# Description: (§1) Resident peritoneal macrophages were isolated from BALB/c mice. For the isolation, 1.5 mL of sterile thioglycolate medium was injected into the peritoneal cavity to induce non-infectious inflammation. Animals were sacrificed after 5 days, and peritoneal exudates were harvested by intraperitoneal lavage. Cold RPMI (6 mL) was injected into the peritoneal cavity. After 10 min, the injected fluid was withdrawn by the same syringe. From each animal, approximately 3-4 mL of medium was recovered. After centrifugation at 200 g for 15 min, macrophages were collected. […] The cytotoxicity of the drug specimen was evaluated by the CC50 value, which is the concentration required to kill 50% of the host cell population. Macrophages were first isolated from peritoneal lavage as described above. The cells were seeded into 96-well plates at 1x10^6 cells/mL in 200 μL of RPMI-1640 supplemented with 10% FCS, 20 mM L-glutamine, 16 mM NaHCO3, penicillin (50 U/mL) and streptomycin (50 μg/ mL) at 37°C in 5% CO2 for 4 h for adherence. To remove the non-adherent cells, each plate was washed two times with phosphate buffer saline (pH 7.2). […] Microscopic examinations were performed in duplicates with various concentrations of pure drugs or buparvaquone-loaded nanoparticles and also for control wells. The amastigotes cells were counted for all cases using a hemocytometer. The mean of the control wells was considered as 100% survival. The counts in the treated wells at various concentrations were converted into percentages. Giemsa-stained slides of the macrophages infected with amastigotes were observed under a light microscope. Then the numbers of amastigotes and infected macrophages per 100 cells were counted for each slide. The percentage (%) of inhibition was calculated by using the equation %[…]×100, (2) where C is the number of amastigotes/infected macrophages per 100 cells in the control well and T is the number of amastigotes/infected macrophages per 100 cells in the drug-treated well.
# [2] = system: resident peritoneal macrophages; experiment: as above; format: cell-based, BALB/c mice; settings: 48 h exposure, mean ± σ, n = 3, read-out: CC50
# Description: as §1
# [3] = system: wild-type L. donovani AG83 amastigotes in spleen; experiment: Culture microtitration assay (CMA) in infected mice; format: in vivo, BALB/c mice; settings: for Spleen: 7 days post-treatment, n = 5; for Suppression (%) of L. donovani amastigote burden in spleen: CMA method, 2 mg/kg
# Description: The infected control group was injected with 0.2 mL of sterile water during the entire dosing period. Seven days post-treatment, the animals were sacrificed, and their spleens were aseptically removed and weighed for determination of amastigote burden by microtitration assay as described elsewhere. Wells were examined for viable and motile promastigotes. The final titer was the last dilution for which the well contained at least one parasite. […] (5) .
# [4] = parameters: method as in PMID 1289357, PMID 14695832; settings: cited from earlier work
# [5] = system: intracellular L.donovani amastigotes, wild-type AG83, in macrophages; experiment: Antileishmanial activity against intracellular amastigotes, wild-type AG83; format: cell-based; settings: for IC50: Leishmania donovani, Macrophage
# Description: The intracellular antileishmanial activity was evaluated based on the reduction in the amastigote numbers in the infected macrophages after the treatment. The method was adapted from our previous work. Briefly, 4x10^6 amastigotes in 500 μL of RPMI-1640 suspension were added to each well containing macrophages with the macrophage: parasite ratio of 1:10. The plates were incubated for 4 h at 37°C in 5% CO2. After the parasite internalization period, cells were washed at least twice with fresh media to remove non-phagocytosed parasites. Then, the drug specimen suspended in 1 mL RPMI-1640 was added, and the samples were incubated for 72 h at 37°C in 5% CO2. The medium was aspirated, the coverslips were removed, and then fixed with methanol and air-dried. After staining with Giemsa, 100 cells on the glass discs were counted. Three independent experiments in quadruplicate for each concentration were performed.
# (§2) Microscopic examinations were performed in duplicates with various concentrations of pure drugs or buparvaquone-loaded nanoparticles and also for control wells. The amastigotes cells were counted for all cases using a hemocytometer. The mean of the control wells was considered as 100% survival. The counts in the treated wells at various concentrations were converted into percentages. Giemsa-stained slides of the macrophages infected with amastigotes were observed under a light microscope. Then the numbers of amastigotes and infected macrophages per 100 cells were counted for each slide. The percentage (%) of inhibition was calculated by using the equation %ofinhibition=C−T/C×100, (2) where C is the number of amastigotes/infected macrophages per 100 cells in the control well and T is the number of amastigotes/infected macrophages per 100 cells in the drug-treated well.
# (§3) Origin version 6.1 software was used to calculate IC50 and CC50 values by plotting a graph of the percentage of inhibition at various concentrations of all the observations.
# [6] = system: L. infantum infection; parameters: method as in earlier work; settings: against L. infantum infection; ref 32 (Reimao et al.); cited from earlier work
# [7] = system: axenic L.donovani amastigotes, GE1 (isolated strain resistant to SSG); experiment: Antileishmanial activity against axenic amastigotes, GE1; format: cell-based
# Description: L. donovani AG83 (MHOM/IN/83/AG83) and GE1 (MHOM/IN/80/GE1F8R) promastigotes were routinely grown in medium 199 supplemented with 10% heat-inactivated fetal bovine serum, 2 mM L-glutamine, 20 mM HEPES, 100 U/mL penicillin, and 100 μg/mL streptomycin at 25°C. L. donovani amastigote forms were grown and maintained as described previously. Axenic amastigote forms were derived from promastigote forms by culturing them in MMA/20 (medium for axenic amastigote) at pH 5.5 [22]. Axenically grown amastigotes were maintained by sub-culture of 10^5 parasites/ml repeated every fifth day under experimental conditions of 37°C temperature and 5% CO2 environment.
# The antileishmanial activity of the drug specimens (BPQ+NP, BPQ, SSG, AmB, PMM, and MF) against the axenic amastigotes were evaluated based on the IC50 value, which is the concentration of the specimen required to kill 50% of the parasites. The parasites were first seeded into 96-well plates at a density of 1x10^5 amastigotes/well in 200 μL medium. Then, 10 μL of the drug candidates at various concentrations were added and the final volume was adjusted to […] medium. The number of amastigotes in the wells treated with each specimen were compared to those in the untreated control wells.
# as §2, §3
# [8] = 2 doses of 2 mg/kg i.p. at 5 days interval
# [9] = 4 doses of 2 mg/kg i.p. at 5 days interval
compound,measurement,setting,value
"CC(C)(C)[C@H]1CC[C@H](CC2=C(O)C(=O)c3ccccc3C2=O)CC1 [BPQ, Buparvaquone]",CC50 at 48 h,[1],> 300 µM
same,CC50,[2],330 ± 30 µM
same,Spleen,[3]; [8],140 ± 22 mg
same,Suppression (%) of L. donovani amastigote burden in spleen,[3]; [8],52% and 52 ± 3 %
same,Spleen,[3]; [9],131 ± 18 mg
same,Suppression (%) of L. donovani amastigote burden in spleen,[3]; [9],64% and 64 ± 4 %
same,Reduction of parasite burden (CMA),"[3]; spleen, 2 mg/kg i.p., 2 or 4 doses at 5 days interval",50%
same,Aqueous solubility,[4],< 0.03 µg/mL
same,Fold larger cellular IC50 of pure BPQ than BPQ+NP,[5]; AG83,3 fold
same,"Selectivity index (SI), AG83","[5]; CC50/IC50, intracellular",120 ± 10
same,IC50,"[5]; cellular model, range over all four L. donovani strains (Table 3), read-out: Cellular IC50, range over the strains",2 to 5 µM
same,IC50,"[5]; intracellular amastigotes, 72 h, mean ± σ, n = 4, read-out: Cellular IC50, Wild-type AG83",2.9 ± 0.3 µM
same,IC50,[6],1.5 µM
same,Fold higher axenic IC50 of pure BPQ than BPQ+NP,[7]; GE1,4 fold
same,"Resistance index (RI), GE1","[7]; IC50 against drug resistant strain / IC50 against wild-type strain (AG83), axenic",1.2 ± 1.4
same,IC50,"[7]; Leishmania donovani, axenic amastigotes, mean ± σ, n = 4",4.1 ± 0.8 µM
